Experimental data: patent publication US11643403B2 (ILDONG PHARMACEUTICAL CO., LTD., priority 2019, dated 2023)

Tests used:
[1] = target: GLP-1 receptor CHO-K1 cells (Homo sapiens (Human), UniProt P43220); assay: cAMP assay (HTRF, CISBIO kit); type: cell-based; settings: for Emax: CHO-K1, cAMP stimulation ratio, Exendin-4 = 100%
Experimental: A cAMP assay test was performed according to a method optimized based on a protocol provided by a cAMP assay kit manufacturer (CISBIO). […] The cells were incubated at room temperature for 7 minutes. A cAMP-d2 conjugate reagent was prepared by mixing a cAMP conjugate with an elution buffer at a ratio of 1:4. An anti-cAMP cryptate conjugate reagent was prepared by mixing a […] with an elution buffer at a ratio of 1:4. Then, […] of the cAMP-d2 conjugate reagent was added to each of the wells. Subsequently, […] of the anti-cAMP cryptate conjugate reagent was added to each of the wells.

[2] = Intravenous glucose tolerance test (ivGTT) via intravenous administration, plasma insulin ELISA; type: in vivo; settings: test substance 1 mg/mL/kg intravenously, maximum plasma insulin
Experimental: Before the intravenous glucose tolerance test (ivGTT) was performed, monkeys to be used in the test were fasted for 16 hours. After the fasting, fasting blood sugar was measured on the day of the test, and the monkeys were grouped to minimize blood sugar deviation. Each of the monkeys was fixed on a correction chair and anesthetized. A tube catheter was inserted into a saphenous vein of the monkey immediately before glucose administration (0 minute), and the test substance (1 mg/mL/kg) was administered intravenously. After the drug administration, glucose (0.25 g/kg, 50% dextrose solution 0.5 mL/kg) was intravenously administered through the tube catheter inserted into the vein. […] The separated plasma samples were stored in a frozen state until insulin analysis.
(§1) The frozen plasma samples were slowly thawed on ice. An ELISA test was performed according to a protocol provided with a Monkey insulin ELISA kit (LSBio, Cat No. LS-F10306). An insulin concentration was calculated by drawing a standard curve using the absorbance of the insulin standard and applying the absorbance of each measured sample thereto.

[3] = Intravenous glucose tolerance test (ivGTT) via oral administration, plasma insulin ELISA; type: in vivo; settings: test substance 50 mg/5 mL/kg orally 60 minutes before glucose […] iv, maximum plasma insulin
Experimental: Before performing the ivGTT, the monkeys to be used in the test were fasted for 16 hours. After the fasting, fasting blood sugar was measured on the day of the test, and then the monkeys were grouped to minimize blood sugar deviation. On 60 minutes before glucose administration (−60 minutes), each of the monkeys was fixed on a correction chair, and the test substance (50 mg/5 mL/kg) was administered orally using a catheter for oral administration. The monkey fixed on the correction chair was anesthetized, and glucose (0.25 g/kg, 50% dextrose solution 0.5 mL/kg) was intravenously administered through a tube catheter inserted into the vein. […] The separated plasma samples were stored in a frozen state until insulin analysis.
as §1

[4] = target: hERG (human ether-a-go-go related gene) potassium channel (Homo sapiens (Human), UniProt Q12809); assay: hERG analysis, automatic whole-cell patch clamp (QPatch 48 HT); type: cell-based; settings: hERG-expressing CHO-K1 cell line, 1-100 μM, room temperature
Chain of hERG (human ether-a-go-go related gene) potassium channel (Q12809 whole entry): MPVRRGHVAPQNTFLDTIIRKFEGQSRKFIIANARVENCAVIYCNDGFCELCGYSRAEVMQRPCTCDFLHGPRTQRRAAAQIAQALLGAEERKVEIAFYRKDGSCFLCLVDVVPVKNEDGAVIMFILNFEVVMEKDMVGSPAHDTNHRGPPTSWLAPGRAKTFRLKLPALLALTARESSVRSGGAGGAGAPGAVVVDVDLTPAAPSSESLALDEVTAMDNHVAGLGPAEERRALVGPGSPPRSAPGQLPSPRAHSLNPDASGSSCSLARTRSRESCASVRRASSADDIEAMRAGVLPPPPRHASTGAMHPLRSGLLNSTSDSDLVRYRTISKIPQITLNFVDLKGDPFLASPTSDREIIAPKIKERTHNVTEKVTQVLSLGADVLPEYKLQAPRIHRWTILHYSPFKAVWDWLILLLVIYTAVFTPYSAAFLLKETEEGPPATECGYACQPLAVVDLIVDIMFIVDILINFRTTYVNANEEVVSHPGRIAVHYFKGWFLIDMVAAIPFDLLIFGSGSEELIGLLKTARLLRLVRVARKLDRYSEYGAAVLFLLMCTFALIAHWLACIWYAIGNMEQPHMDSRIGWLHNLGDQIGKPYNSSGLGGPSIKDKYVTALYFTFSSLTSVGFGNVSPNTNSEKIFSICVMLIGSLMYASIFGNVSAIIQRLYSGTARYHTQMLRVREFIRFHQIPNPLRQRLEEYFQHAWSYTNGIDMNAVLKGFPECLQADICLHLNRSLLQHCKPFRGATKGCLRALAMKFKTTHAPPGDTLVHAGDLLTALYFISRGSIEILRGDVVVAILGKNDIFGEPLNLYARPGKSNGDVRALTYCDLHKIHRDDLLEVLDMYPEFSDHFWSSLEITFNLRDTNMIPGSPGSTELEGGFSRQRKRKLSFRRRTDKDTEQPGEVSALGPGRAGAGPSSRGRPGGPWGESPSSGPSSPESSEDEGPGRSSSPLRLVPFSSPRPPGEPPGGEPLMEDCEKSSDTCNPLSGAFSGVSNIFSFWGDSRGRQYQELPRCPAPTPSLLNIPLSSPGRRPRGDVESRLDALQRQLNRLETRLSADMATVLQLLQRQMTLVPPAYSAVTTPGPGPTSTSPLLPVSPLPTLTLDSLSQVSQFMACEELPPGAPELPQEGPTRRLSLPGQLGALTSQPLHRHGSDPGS
Experimental: The inhibition of activity of hERG (human ether-a-go-go related gene) potassium channel by the compounds was evaluated by using an automatic whole-cell patch clamp system (QPatch 48 HT, Sophion Bioscience) that can directly measure the flow of ions through the potassium channel in cells. A CHO-K1 cell line stably expressing human hERG cDNA (Kv11.1, KCNH2) was used. The composition of the intracellular solution (mM) used for the analysis is 70 KF, 60 KCl, 15 NaCl, 5 HEPES, 5 EGTA, 5 MgATP, pH 7.3 by KOH.
The hERG-expressing CHO-K1 cell line was treated with each compound at five concentrations (1, 3, 10, 30 and 100 μM), and incubated with each test concentration for 5 minutes in duplicate. All experiments were conducted at room temperature. Change in current amplitude through the hERG channel was recorded every 8 seconds.
Stock solution for each compound is prepared in DMSO at 300× the final assay concentrations, and stored at −20° C. until the day of assay. On the day of the experiment, the stock was diluted into an extracellular solution to make final treatment concentration.
The change in hERG current before and after treatment with the test substance was recorded using the automatic whole cell patch clamp, and the hERG inhibition percentage (%) was calculated based on the control group.
In this calculation, an inhibitor dose-response curve analyzed by using a curve fitting program that uses a 4-parameter logistic dose response equation was used.

Chain of GLP-1 receptor CHO-K1 cells (P43220 24-463): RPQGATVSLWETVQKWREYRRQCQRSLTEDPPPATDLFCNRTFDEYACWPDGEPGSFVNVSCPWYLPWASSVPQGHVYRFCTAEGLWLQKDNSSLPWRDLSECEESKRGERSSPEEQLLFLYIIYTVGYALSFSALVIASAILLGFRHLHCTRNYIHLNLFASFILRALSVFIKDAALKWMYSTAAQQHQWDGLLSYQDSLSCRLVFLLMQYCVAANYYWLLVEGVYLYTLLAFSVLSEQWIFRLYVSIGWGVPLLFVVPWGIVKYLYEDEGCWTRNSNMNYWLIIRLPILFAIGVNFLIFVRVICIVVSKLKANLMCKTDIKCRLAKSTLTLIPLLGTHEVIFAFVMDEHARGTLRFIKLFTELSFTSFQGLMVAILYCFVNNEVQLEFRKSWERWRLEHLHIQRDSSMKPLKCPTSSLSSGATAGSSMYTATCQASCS

EC50 [1]	Emax [1]	SMILES	Monkey ivGTT (iv) insulinmax (IU/mL) [2]	Monkey ivGTT (po) insulinmax [3]	IC50 [4]
50 to 100 nM	111%	N#Cc1ccc(COc2cccc(N3CCN(Cc4nc5ccc(C(=O)O)nc5n4C[C@@H]4CCO4)CC3)n2)nc1 [Example 5, (S)-2-((4-(6-((5-cyanopyridin-2-yl)methoxy)pyridin-2-yl)piperazin-1-yl)methyl)-3-(oxetane-2-ylmethyl)-3H-imidazo[4,5-b]pyridine-5-carboxylic acid]			
50 to 100 nM	96.4%	O=C(O)c1ccc2nc(CN3CCC(c4cccc(OCc5ncc(Cl)cc5F)c4)CC3)n(C[C@@H]3CCO3)c2c1 [Example 10, (S)-2-((4-(3-((5-chloro-3-fluoropyridin-2-yl)methoxy)phenyl)piperidin-1-yl)methyl)-1-(oxetane-2-ylmethyl)-1H-benzo[d]imidazole-6-carboxylic acid]			
< 50 nM	128%	N#Cc1ccc(COc2cccc(N3CCN(Cc4nc5ccc(C(=O)O)nc5n4C[C@@H]4CCO4)CC3)c2)nc1 [Example 13, (S)-2-((4-(3-((5-cyanopyridin-2-yl)methoxy)phenyl)piperazin-1-yl)methyl)-3-(oxetan-2-ylmethyl)-3H-imidazo[4,5-b]pyridine-5-carboxylic acid]	+ (a maximum insulin concentration is 200˜250 IU/mL)		> 100000 nM
< 50 nM	91.4%	N#Cc1ccc(COc2cccc(N3CCN(Cc4nc5ccc(C(=O)O)cc5n4C[C@@H]4CCO4)CC3)c2)nc1 [Example 14, (S)-2-((4-(3-((5-cyanopyridin-2-yl)methoxy)phenyl)piperazin-1-yl)methyl)-1-(oxetan-2-ylmethyl)-1H-benzo[d]imidazole-6-carboxylic acid]	+ (a maximum insulin concentration is 200˜250 IU/mL)		> 100000 nM
< 50 nM	102%	O=C(O)c1ccc2nc(CN3CCN(c4cccc(OCc5ncc(Cl)cc5F)n4)CC3)n(C[C@@H]3CCO3)c2c1 [Example 16, (S)-2-((4-(6-((5-chloro-3-fluoropyridin-2-yl)methoxy)pyridin-2-yl)piperazin-1-yl)methyl)-1-(oxetan-2-ylmethyl)-1H-benzo[d]imidazole-6-carboxylic acid]			> 100000 nM

Second part, the molecule before the results:

SMILES	EC50 [1]	Emax [1]	Monkey ivGTT (iv) insulinmax (IU/mL) [2]	Monkey ivGTT (po) insulinmax [3]	IC50 [4]
C[C@H]1CN(c2cccc(OCc3ccc(C#N)cn3)n2)CCN1Cc1nc2ccc(C(=O)O)cc2n1C[C@@H]1CCO1 [Example 1, 2-(((S)-4-(6-((5-cyanopyridin-2-yl)methoxy)pyridin-2-yl)-2-methylpiperazin-1-yl)methyl)-1-(((S)-oxetan-2-yl)methyl)-1H-benzo[d]imidazole-6-carboxylic acid]	< 50 nM	104%	++ (a maximum insulin concentration is greater than 250 IU/mL)	+ (a maximum insulin concentration is 50˜100 IU/mL)	> 100000 nM
N#Cc1ccc(COc2cccc(N3CCN(Cc4nc5ccc(C(=O)O)cc5n4C[C@@H]4CCO4)CC3)n2)nc1 [Example 2, (S)-2-((4-(6-((5-cyanopyridin-2-yl)methoxy)pyridin-2-yl)piperazin-1-yl)methyl)-1-(oxetan-2-ylmethyl)-1H-benzo [d]imidazole-6-carboxylic acid]	< 50 nM	108%		++ (a maximum insulin concentration is greater than 100 IU/mL)	> 100000 nM
C[C@H]1CN(c2cccc(OCc3ccc(C#N)cn3)n2)CCN1Cc1nc2ccc(C(=O)O)nc2n1C[C@@H]1CCO1 [Example 6, 2-(((S)-4-(6-((5-cyanopyridin-2-yl)methoxy)pyridin-2-yl)-2-methylpiperazin-1-yl)methyl)-3-(((S)-oxetan-2-yl)methyl)-3H-imidazo[4,5-b]pyridine-5-carboxylic acid]			++ (a maximum insulin concentration is greater than 250 IU/mL)	+ (a maximum insulin concentration is 50˜100 IU/mL)	> 100000 nM
O=C(O)c1ccc2nc(CN3CCN(c4cccc(OCc5ccc(Cl)cn5)n4)CC3)n(C[C@@H]3CCO3)c2c1 [Example 17, (S)-2-((4-(6-((5-chloropyridin-2-yl)methoxy)pyridin-2-yl)piperazin-1-yl)methyl)-1-(oxetane-2-ylmethyl)-1H-benzo [d]imidazole-6-carboxylic acid]	< 50 nM	101%	+ (a maximum insulin concentration is 200˜250 IU/mL)		> 100000 nM
